Assay results reported in ChEMBL document CHEMBL3885881, “DrugMatrix”.

Species: Rattus norvegicus
Assay: DrugMatrix - Regimen: Daily Repeat
Type: toxicity, organism-based, Sprague-Dawley
Parameters: regimen Daily Repeat, gender Male, age 6-8 weeks
Conditions: in vivo, po, route oral GAVAGE, vehicle .5 % CMC; for ABSOLUTE BASOPHIL / ABSOLUTE EOSINOPHIL / ABSOLUTE LYMPHOCYTE / ABSOLUTE MONOCYTE / ABSOLUTE SEGMENTED NEUTROPHIL / BASOPHIL / EOSINOPHIL / ERYTHROCYTE COUNT / HEMATOCRIT / HEMOGLOBIN / LEUKOCYTE COUNT / LYMPHOCYTE / MEAN CORPUSCULAR HEMOGLOBIN / MEAN CORPUSCULAR HEMOGLOBIN CONCENTRATION / MEAN CORPUSCULAR VOLUME / MONOCYTE / NEUTROPHIL / NUCLEATED RED BLOOD CELLS / PLATELET COUNT: tissue Blood; for ALANINE AMINOTRANSFERASE / ALBUMIN / ALKALINE PHOSPHATASE / ASPARTATE AMINOTRANSFERASE / BLOOD UREA NITROGEN / CARBON DIOXIDE / CHLORIDE / CHOLESTEROL / CREATINE PHOSPHOKINASE / CREATININE / GLUCOSE / LACTATE DEHYDROGENASE / LIPASE / PHOSPHORUS / POTASSIUM / SODIUM / TOTAL BILIRUBIN / TOTAL PROTEIN / URIC ACID: tissue Plasma
[1] = 50 mg/kg, 120 h, dose level Low, time 5 day
[2] = 2500 mg/kg, 72 h, dose level High, time 3 day
[3] = 2500 mg/kg, 120 h, dose level High, time 5 day

CC(/C=C1\SC(=S)N(CC(=O)O)C1=O)=C\c1ccccc1
ABSOLUTE BASOPHIL [1]: 0 CELLS/uL | ABSOLUTE EOSINOPHIL [1]: 0 CELLS/uL | ABSOLUTE LYMPHOCYTE [1]: 8755.33 CELLS/uL | ABSOLUTE MONOCYTE [1]: 98 CELLS/uL | ABSOLUTE SEGMENTED NEUTROPHIL [1]: 946.67 CELLS/uL | BASOPHIL [1]: 0% | EOSINOPHIL [1]: 0% | ERYTHROCYTE COUNT [1]: 5.47 x10E6/uL | HEMATOCRIT [1]: 34.63% | HEMOGLOBIN [1]: 14.03 G/DL | LEUKOCYTE COUNT [1]: 9.8 x10E3/uL | LYMPHOCYTE [1]: 89.67% | MEAN CORPUSCULAR HEMOGLOBIN [1]: 25.7 pg | MEAN CORPUSCULAR HEMOGLOBIN CONCENTRATION [1]: 40.53 G/DL | MEAN CORPUSCULAR VOLUME [1]: 63.33 fL | MONOCYTE [1]: 1% | NEUTROPHIL [1]: 9.33% | NUCLEATED RED BLOOD CELLS [1]: 0 /100WBC | PLATELET COUNT [1]: 1226 x10E3/uL | ALANINE AMINOTRANSFERASE [1]: 61.33 u/L | ALBUMIN [1]: 4.5 G/DL | ALKALINE PHOSPHATASE [1]: 418.33 u/L | ASPARTATE AMINOTRANSFERASE [1]: 81.33 u/L | BLOOD UREA NITROGEN [1]: 14.33 mg/dL | CARBON DIOXIDE [1]: 34 mmol/L | CHLORIDE [1]: 100.67 MEQ/L | CHOLESTEROL [1]: 81 mg/dL | CREATINE PHOSPHOKINASE [1]: 171 u/L | CREATININE [1]: 0.12 mg/dL | GLUCOSE [1]: 147.33 mg/dL | LACTATE DEHYDROGENASE [1]: 106.67 u/L | LIPASE [1]: 10 u/L | PHOSPHORUS [1]: 10.83 mg/dL | POTASSIUM [1]: 6.07 MEQ/L | SODIUM [1]: 143.73 MEQ/L | TOTAL BILIRUBIN [1]: 0.2 mg/dL | TOTAL PROTEIN [1]: 6.37 G/DL | URIC ACID [1]: 0.87 mg/dL | ABSOLUTE BASOPHIL [2]: 0 CELLS/uL | ABSOLUTE EOSINOPHIL [2]: 58.67 CELLS/uL | ABSOLUTE LYMPHOCYTE [2]: 8116.67 CELLS/uL | ABSOLUTE MONOCYTE [2]: 158 CELLS/uL | ABSOLUTE SEGMENTED NEUTROPHIL [2]: 700 CELLS/uL | BASOPHIL [2]: 0% | EOSINOPHIL [2]: 0.67% | ERYTHROCYTE COUNT [2]: 6.27 x10E6/uL | HEMATOCRIT [2]: 39% | HEMOGLOBIN [2]: 15.47 G/DL | LEUKOCYTE COUNT [2]: 9.03 x10E3/uL | LYMPHOCYTE [2]: 90% | MEAN CORPUSCULAR HEMOGLOBIN [2]: 24.83 pg | MEAN CORPUSCULAR HEMOGLOBIN CONCENTRATION [2]: 39.77 G/DL | MEAN CORPUSCULAR VOLUME [2]: 62.43 fL | MONOCYTE [2]: 1.67% | NEUTROPHIL [2]: 7.67% | NUCLEATED RED BLOOD CELLS [2]: 0 /100WBC | PLATELET COUNT [2]: 1417 x10E3/uL | ALANINE AMINOTRANSFERASE [2]: 61.33 u/L | ALBUMIN [2]: 3.93 G/DL | ALKALINE PHOSPHATASE [2]: 381 u/L | ASPARTATE AMINOTRANSFERASE [2]: 133.33 u/L | BLOOD UREA NITROGEN [2]: 25 mg/dL | CARBON DIOXIDE [2]: 19 mmol/L | CHLORIDE [2]: 105.33 MEQ/L | CHOLESTEROL [2]: 46 mg/dL | CREATINE PHOSPHOKINASE [2]: 544.33 u/L | CREATININE [2]: 0.22 mg/dL | GLUCOSE [2]: 130.33 mg/dL | LACTATE DEHYDROGENASE [2]: 248.67 u/L | LIPASE [2]: 9.33 u/L | PHOSPHORUS [2]: 11.67 mg/dL | POTASSIUM [2]: 5.57 MEQ/L | SODIUM [2]: 142.23 MEQ/L | TOTAL BILIRUBIN [2]: 0.27 mg/dL | TOTAL PROTEIN [2]: 5.4 G/DL | URIC ACID [2]: 1.83 mg/dL | ABSOLUTE BASOPHIL [3]: 0 CELLS/uL | ABSOLUTE EOSINOPHIL [3]: 0 CELLS/uL | ABSOLUTE LYMPHOCYTE [3]: 3825 CELLS/uL | ABSOLUTE MONOCYTE [3]: 102 CELLS/uL | ABSOLUTE SEGMENTED NEUTROPHIL [3]: 1173 CELLS/uL | BASOPHIL [3]: 0% | EOSINOPHIL [3]: 0% | ERYTHROCYTE COUNT [3]: 7.26 x10E6/uL | HEMATOCRIT [3]: 41.8% | HEMOGLOBIN [3]: 16.5 G/DL | LEUKOCYTE COUNT [3]: 5.1 x10E3/uL | LYMPHOCYTE [3]: 75% | MEAN CORPUSCULAR HEMOGLOBIN [3]: 22.7 pg | MEAN CORPUSCULAR HEMOGLOBIN CONCENTRATION [3]: 39.5 G/DL | MEAN CORPUSCULAR VOLUME [3]: 57.6 fL | MONOCYTE [3]: 2% | NEUTROPHIL [3]: 23% | NUCLEATED RED BLOOD CELLS [3]: 0 /100WBC | PLATELET COUNT [3]: 1575 x10E3/uL | ALANINE AMINOTRANSFERASE [3]: 38 u/L | ALBUMIN [3]: 3.9 G/DL | ALKALINE PHOSPHATASE [3]: 162 u/L | ASPARTATE AMINOTRANSFERASE [3]: 70 u/L | BLOOD UREA NITROGEN [3]: 24 mg/dL | CARBON DIOXIDE [3]: 25 mmol/L | CHLORIDE [3]: 100 MEQ/L | CHOLESTEROL [3]: 64 mg/dL | CREATINE PHOSPHOKINASE [3]: 119 u/L | CREATININE [3]: 0.1 mg/dL | GLUCOSE [3]: 89 mg/dL | LACTATE DEHYDROGENASE [3]: 148 u/L | LIPASE [3]: 7 u/L | PHOSPHORUS [3]: 15.2 mg/dL | POTASSIUM [3]: 4.09 MEQ/L | SODIUM [3]: 144.1 MEQ/L | TOTAL BILIRUBIN [3]: 0.5 mg/dL | TOTAL PROTEIN [3]: 5.9 G/DL | URIC ACID [3]: 2.1 mg/dL
